Data as given in article PMC6108528, “Enhanced uptake of potassium or glycine betaine or export of cyclic-di-AMP restores osmoresistance in a high cyclic-di-AMP Lactococcus lactis mutant” (PLoS Genetics, 2018).

Biological target: T1, full length BusR (Lactococcus cremoris, UniProt A2RK30)
T1 construct: full length, His-6 tag fusion in pRSETA, codon optimised, E. coli BL21 whole cell lysate
T1 sequence (A2RK30 1-206): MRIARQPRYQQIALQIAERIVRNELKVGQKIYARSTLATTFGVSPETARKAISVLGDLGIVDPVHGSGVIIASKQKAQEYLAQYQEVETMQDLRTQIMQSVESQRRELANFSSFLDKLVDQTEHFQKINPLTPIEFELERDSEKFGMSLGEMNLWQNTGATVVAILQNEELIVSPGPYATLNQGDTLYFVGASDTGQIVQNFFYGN
Experiment: DRaCALA with […]-c-di-AMP, E. coli whole cell lysate
Assay type: biochemical
Conditions: labelled compound; room temperature, 10 min

Nc1ncnc2c1ncn2[C@@H]1O[C@@H]2COP(=O)(O)O[C@H]3[C@@H](O)[C@H](n4cnc5c(N)ncnc54)O[C@@H]3COP(=O)(O)O[C@H]2[C@H]1O [c-di-AMP]
DRaCALA with 32P-c-di-AMP, E. coli whole cell lysate: Both full length BusR and the BusR TrkA_C domain bound c-di-AMP
